Measurements reported in ChEMBL document CHEMBL3988442, “University of Dundee, Small-Polar-MMV Screening Library” (2021).

Target: Tryptophan--tRNA ligase (Mycobacterium tuberculosis (strain ATCC 25618 / H37Rv), UniProt P9WFT3)
Assay: Biochemical assay for Mt-TrpRS
Assay type: functional

Tryptophan--tRNA ligase, sequence (P9WFT3 whole entry): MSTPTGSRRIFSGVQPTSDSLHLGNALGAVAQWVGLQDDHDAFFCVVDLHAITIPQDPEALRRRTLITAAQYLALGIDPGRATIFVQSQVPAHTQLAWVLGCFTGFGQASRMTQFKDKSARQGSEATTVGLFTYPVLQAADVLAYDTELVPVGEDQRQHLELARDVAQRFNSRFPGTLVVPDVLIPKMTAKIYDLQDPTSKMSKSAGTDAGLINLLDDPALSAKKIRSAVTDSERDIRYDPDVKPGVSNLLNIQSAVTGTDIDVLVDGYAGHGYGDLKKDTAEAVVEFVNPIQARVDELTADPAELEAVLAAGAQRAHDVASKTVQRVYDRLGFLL

NC(=O)CN1CCC(c2noc3cc(F)ccc23)CC1
IC50: > 195 µM

COc1cccc(F)c1CN1CCC(c2nc(C)cc(C)n2)C1 (centres undefined)
IC50: > 195 µM

COc1ccccc1OCCc1nnc(NC(=O)C2CC23CCC3)s1 (centres undefined)
IC50: > 195 µM

CC(=O)N1CCC(C(=O)N2CCC2c2nc(-c3ccc(C)s3)no2)CC1 (centres undefined)
IC50: > 195 µM

CCN(CC)S(=O)(=O)N1CCCC(c2ncc3c(n2)CCN(C)C3)C1 (centres undefined)
IC50: > 195 µM

CN(C)C(=O)c1cncnc1-c1ccc(CNC(=O)C2CCCO2)cc1 (centres undefined)
IC50: > 195 µM

CC(C)C(NC(=O)C1CCCC1)c1cc(O)nc(-c2cccnc2)n1 (centres undefined)
IC50: > 195 µM

C=Cn1ncc(CN2CCC(c3ncc(Cl)cc3S(C)(=O)=O)CC2)c1C
IC50: > 195 µM

Cc1sc2c(C3CCCN(C)C3)nc(C)n2c1C (centres undefined)
IC50: > 195 µM

NC(=O)CN1CCCC(Cc2ccc(N3CCOCC3)nn2)C1 (centres undefined)
IC50: > 195 µM

COCCn1cnnc1C1CCCN(C(C)C)C1 (centres undefined)
IC50: > 195 µM

Cn1nccc1C(=O)N1CCCC1c1[nH]ncc1C(N)=O (centres undefined)
IC50: > 195 µM

Cc1cc(N2CCC(c3n[nH]c4nccnc34)C2)ncn1 (centres undefined)
IC50: > 195 µM

c1ccc(N2CCOC(Cc3cccnc3)C2)cc1 (centres undefined)
IC50: > 195 µM

Cn1ccc(C(=O)N2CCCC2c2[nH]ncc2C(N)=O)n1 (centres undefined)
IC50: > 195 µM

Cc1cc(N2CCC(c3n[nH]c4nccnc34)CC2)ncn1
IC50: > 195 µM

Cc1cncc(C2CCN(C(=O)CCc3ccnn3C)CC2)n1
IC50: > 195 µM

Nc1nccnc1C1CN(C(=O)c2ccnnc2)CCO1 (centres undefined)
IC50: > 195 µM

NC(=O)CN1CCCC(Cc2ccc(N)nn2)C1 (centres undefined)
IC50: > 195 µM

Cn1ccc(C(=O)N2CCOC(c3ccccn3)C2)cc1=O (centres undefined)
IC50: > 195 µM

COc1cccc(-c2ccnc(C3CCNCC3)c2)c1
IC50: > 195 µM

COCCc1ncc(CNC2(c3ccc(Cl)cc3Cl)CC2)cn1
IC50: > 195 µM

COc1ccccc1C1=NOC(CC2(C(=O)O)CCOCC2)C1 (centres undefined)
IC50: > 195 µM

CN(C)CC(=O)N1C[C@@H]2CC[C@H](Oc3ccccc3)[C@@H]2C1
IC50: > 195 µM

CCOCC(=O)N1C[C@@H]2CC[C@H](Oc3ccccc3)[C@@H]2C1
IC50: > 195 µM

O=C(O)c1ccccc1CN1CCOC(CCc2ccncn2)C1 (centres undefined)
IC50: > 195 µM

CS(=O)(=O)NC[C@]1(O)CCN(C(=O)Cc2cccs2)C[C@H]1O
IC50: > 195 µM

c1ccc(CO[C@H]2C[C@@H]3CN(Cc4cccnc4)C[C@@H]3C2)cc1
IC50: > 195 µM

COCCN1CCN(Cc2cnc(C(C)C)nc2)CC1
IC50: > 195 µM

O[C@H]1CN(Cc2cccc(C(F)(F)F)c2)CC[C@@]12CCCO2
IC50: > 195 µM

O=C(N[C@@H]1CCC[C@@H](N2CCCC2)[C@@H]1O)c1cc2ccccc2[nH]1
IC50: > 195 µM

O=S(=O)(c1cccs1)N1CCCC(c2nccs2)C1 (centres undefined)
IC50: > 195 µM

Cc1noc(C2(C)CCCN(C(=O)c3cccnc3)C2)n1 (centres undefined)
IC50: > 195 µM

O=C(CCc1cccnc1)N1CCC(c2cnccn2)CC1
IC50: > 195 µM

O=C(CCn1ccnc1)N1C[C@@H](O)[C@H](Oc2cccc(F)c2)C1
IC50: > 195 µM

Cc1c(C(=O)N2CCC(O)(CN(C)C)C2)c2ccccc2n1C (centres undefined)
IC50: > 195 µM

Cc1cc(C)nc(C2CCN(C(=O)c3cncnc3C)C2)n1 (centres undefined)
IC50: > 195 µM

CCCC(=O)N1CCCCC1c1nccc(C)n1 (centres undefined)
IC50: > 195 µM

Cc1nc(Nc2nncs2)cc(C2CCCN2C)n1 (centres undefined)
IC50: > 195 µM

CN1CCC(c2cncc(-c3cccc(Cl)c3)n2)CC1
IC50: > 195 µM

CC(=O)N1CCCC(c2ccnc(N(C)C)n2)C1 (centres undefined)
IC50: > 195 µM

Cc1nc(Nc2ncccn2)cc(C2CCCN2C)n1 (centres undefined)
IC50: > 195 µM

NC(=O)CN1CCOCC(Cc2ccccc2Cl)C1 (centres undefined)
IC50: > 195 µM

COCC(=O)N1CCC(C(=O)c2cc(C)cnc2N)CC1
IC50: > 195 µM

CN1CC(c2cc(O)nc(NCc3ccc(Cl)cc3)n2)CC1=O (centres undefined)
IC50: > 195 µM

Cc1ccc(CNc2nc(O)cc(C3CC(=O)N(C)C3)n2)cc1 (centres undefined)
IC50: > 195 µM

Cc1cccnc1C(=O)N1CCC(Cc2cnc3[nH]ccc3c2)CC1
IC50: > 195 µM

Cn1nc(C2CN(C(=O)c3ccncc3)C2)c2nccnc21
IC50: > 195 µM

O=C(N[C@@H]1CC[C@@H](n2ccnc2)[C@@H]1O)c1cc2c(s1)CCC2
IC50: > 195 µM

Cc1ccnc(C2CCN(C(=O)c3cnn(C)c3)C2)n1 (centres undefined)
IC50: > 195 µM

CCCn1cc(CN2CCCC2c2nccc(CN(C)C)n2)cn1 (centres undefined)
IC50: > 195 µM

Cn1ccc(C(=O)N2CCCC(c3cc(O)n(C)n3)C2)n1 (centres undefined)
IC50: > 195 µM

O=C(Cn1cccnc1=O)NC(Cc1ccsc1)c1nccs1 (centres undefined)
IC50: > 195 µM

Cc1cc(-c2cnn(CCNC(=O)Cc3ccccn3)c2C2CC2)on1
IC50: > 195 µM

Cc1cccc(CN2CCC(c3nnsc3S(C)(=O)=O)CC2)c1
IC50: > 195 µM

CS(=O)(=O)c1snnc1C1CCN(Cc2cccnc2)CC1
IC50: > 195 µM

Cc1ccc2cc(CNCCN3CCCC3)c(=O)[nH]c2c1
IC50: > 195 µM

CS(=O)(=O)N1CCCC(Cc2cncc(Br)c2)CC1 (centres undefined)
IC50: > 195 µM

CNc1cccc(C2CCCN(C(=O)c3cccnc3)C2)n1 (centres undefined)
IC50: > 195 µM

CN1CCCC(CCCc2cccnc2)(C(N)=O)C1 (centres undefined)
IC50: > 195 µM

Cc1cccc(CN2CCCC2c2cccc(CCC(=O)O)n2)c1 (centres undefined)
IC50: > 195 µM

O[C@@H]1CN(Cc2ccncc2)C[C@H]1Oc1ccccc1
IC50: > 195 µM

COc1ccc(S(=O)(=O)N2CCC(O)(CN(C)C)C2)cc1 (centres undefined)
IC50: > 195 µM

Cc1cncc(CN2C[C@@H](O)[C@H](Oc3ccccc3)C2)c1
IC50: > 195 µM

Cc1ccc(S(=O)(=O)N2CCC(O)(CN(C)C)C2)cc1 (centres undefined)
IC50: > 195 µM

Cn1ccc(C(=O)N2CCC(Cc3cnc4[nH]ccc4c3)C2)n1 (centres undefined)
IC50: > 195 µM

CNc1cccc(C2CCCN(C(=O)c3ccn(C)n3)C2)n1 (centres undefined)
IC50: > 195 µM

O=C(c1ccccn1)N1CCC(Cc2cnc3[nH]ccc3c2)CC1
IC50: > 195 µM

CN(C)CC1(O)CCN(S(=O)(=O)c2cccc(F)c2)C1 (centres undefined)
IC50: > 195 µM

Cc1ccccc1-c1cncc(C2CCN(CCO)CC2)n1
IC50: > 195 µM

Cc1cccc(C2CCCN(C(=O)c3ccncc3)C2)n1 (centres undefined)
IC50: > 195 µM

CCc1cc(O)nc(C2CCCN2C(=O)COC)n1 (centres undefined)
IC50: > 195 µM

COCC(=O)N1CCOC(c2ccc(N(C)C)cn2)C1 (centres undefined)
IC50: > 195 µM

Cc1csc(Nc2nccnc2C2CCCN2CC(N)=O)n1 (centres undefined)
IC50: > 195 µM

COc1cccc(C(=O)NC(c2ccccn2)[C@H]2CC[C@H](CN)CC2)c1 (some centres undefined)
IC50: > 195 µM

CO[C@H]1CN(Cc2ccc(F)c(F)c2)C[C@@]12CCCO2
IC50: > 195 µM

O=C(Cc1cccs1)N1CCC(O)(CN2CCc3ccccc3C2)C1 (centres undefined)
IC50: > 195 µM

CNc1cncc(C2CCCN2Cc2cccc(C)n2)n1 (centres undefined)
IC50: > 195 µM

CC1CCCCN1c1nc2c(c(=O)[nH]1)CCN(Cc1ccccc1O)C2 (centres undefined)
IC50: > 195 µM

COCCC(=O)N1CCCC1c1csc(Nc2ccccn2)n1 (centres undefined)
IC50: > 195 µM

CCn1cc(CN2CCC(c3[nH]ncc3S(C)(=O)=O)C2)cn1 (centres undefined)
IC50: > 195 µM

COCC(=O)N1CCCC(c2cccc(-n3ccnc3)n2)C1 (centres undefined)
IC50: > 195 µM

Cc1cc2cc(C(=O)N3C[C@H](O)[C@]4(CCCO4)C3)ccc2o1
IC50: > 195 µM

COc1ccccc1CC(=O)N1CC[C@H](O)[C@]2(CCCO2)C1
IC50: > 195 µM

C[C@@]1(O)CCN(Cc2cc[nH]n2)C[C@H]1Oc1cccc(F)c1
IC50: > 195 µM

Cn1cncc1CN1CC[C@](C)(O)[C@@H](Oc2cccc(F)c2)C1
IC50: > 195 µM

CO[C@H]1CN(Cc2cc(F)ccc2F)CC[C@@]12CCCO2
IC50: > 195 µM

C[C@]1(O)CN(Cc2ncc[nH]2)CC[C@@H]1Oc1cccc(F)c1
IC50: > 195 µM

C[C@]1(O)CN(CCO)CC[C@@H]1Oc1cccc(F)c1
IC50: > 195 µM

Cc1cnc(CC2COCCN(Cc3nccn3C)C2)cn1 (centres undefined)
IC50: > 195 µM

CN(C)c1ccc(CC2COCCN(Cc3nccn3C)C2)nn1 (centres undefined)
IC50: > 195 µM

CN(C)C(=O)CN1CCO[C@H]2CN(Cc3ccoc3)C[C@H]21
IC50: > 195 µM

Cc1nc(CN2CCC3(C2)CN(Cc2ccco2)C3)cs1
IC50: > 195 µM

Cc1ccc(CN2C[C@H](NC(=O)c3nccn3C)[C@H]3OCCC[C@H]32)o1
IC50: > 195 µM

Cc1ccc(N2CCc3ncnc(C)c3CC2)nn1
IC50: > 195 µM

CCC(=O)N1CCC2(C=C(C(=O)N3CCCC3)c3ccccc32)CC1
IC50: > 195 µM

COCCN1C(=O)CC[C@@H]2[C@H]1CCN2S(=O)(=O)c1cccs1
IC50: > 195 µM

CN(C)C(=O)NCC1CC2(CO1)CN(c1nncs1)C2 (centres undefined)
IC50: > 195 µM

O=C(NCC1CC2(CO1)CN(c1ncccn1)C2)C1CCC1 (centres undefined)
IC50: > 195 µM

O=C(C1CCOC1)N1C[C@@H]2CCN(C(=O)c3cscn3)[C@@H]2C1 (some centres undefined)
IC50: > 195 µM

O=C(NC1CC1)N1C[C@@H]2CCN(C(=O)c3cscn3)[C@@H]2C1
IC50: > 195 µM

CS(=O)(=O)N1C[C@@H]2CCN(C(=O)c3cscn3)[C@@H]2C1
IC50: > 195 µM

CCN(C(=O)c1nc2c(s1)CCCN2C)C(C)C
IC50: > 195 µM

O=C1CO[C@@H]2CN(S(=O)(=O)c3ccc(F)cc3)C[C@H]2N1
IC50: > 195 µM

COCc1cncc2c1CCN(C(=O)c1cscn1)C2
IC50: > 195 µM

c1cn(-c2cnc(C3CCCNC3)cn2)cn1 (centres undefined)
IC50: > 195 µM

c1cn(-c2cncc(C3CCNCC3)n2)cn1
IC50: > 195 µM

Fc1ccccc1OCCc1cc(C2CNCCO2)n[nH]1 (centres undefined)
IC50: > 195 µM

O=C(c1cc2c(s1)CCCC2)N1CCc2nc(C3CCCN3)ncc2C1 (centres undefined)
IC50: > 195 µM

CC(=O)N1CCN(c2cc(CCN)nc(C3CC3)n2)CC1
IC50: > 195 µM

c1cn(-c2cnc(C3CCNCC3)cn2)cn1
IC50: > 195 µM

Fc1ccc2c(c1)C1(CCNCC1)CC2NC1CC1 (centres undefined)
IC50: > 195 µM

Cn1cc(C(=O)NCc2cncc3c2CCN(CC2CC2)C3)cn1
IC50: > 195 µM

Cn1cc(C(=O)NCc2cncc3c2CCN(c2ccccn2)C3)cn1
IC50: > 195 µM

Cn1cc(C(=O)NCc2cncc3c2CCNC3)cn1
IC50: > 195 µM

CC(C)N(C)Cc1cncc2c1CCN(CC(=O)N(C)C)C2
IC50: > 195 µM

CN(C)CCNC(=O)c1nc2c(s1)CCCN2C(=O)C1CC1
IC50: > 195 µM

O=C(NCC1CC2(CO1)CN(Cc1cccs1)C2)C1CCC1 (centres undefined)
IC50: > 195 µM

c1cnc(N2CCO[C@H]3CN(CC4CCOC4)C[C@H]32)cn1 (some centres undefined)
IC50: > 195 µM

CC(=O)N1CCO[C@@H]2CN(Cc3cccc(Cl)c3)C[C@@H]2C1
IC50: > 195 µM

Cn1cnc(S(=O)(=O)N2CC3(CCN(c4ccccc4)C3)C2)c1
IC50: > 195 µM

c1cncc(CN2CCN3C[C@H](Oc4cncnc4)C[C@H]3C2)c1
IC50: > 195 µM

COCC1CC2(CCN(Cc3nccs3)CC2)CN1Cc1ccccn1 (centres undefined)
IC50: > 195 µM

Cc1nc(C2CCN(Cc3ncc[nH]3)CC2)no1
IC50: > 195 µM
